Measured values: PMC7413254 (Nature Communications, 2020)
Where two headings read alike, the source gives them in different places.

Experiments:
[1] = target: T1, PfCRT^3D7 in C2^GC03 parasites (Plasmodium falciparum, UniProt Q8IBZ9); assay: P. falciparum H+-efflux assay (rate of DV alkalinisation after concanamycin A); assay type: cell-based; conditions: C2GC03; for Effect on rate of DV alkalinisation / H+ leak (in words): test solute 10 μM
T1 construct: PfCRT also functions as a peptide transporter within its native environment of the DV membrane; expressed in transfected cells; host or cells: P. falciparum pfcrt transfectant line C2^GC03 (saponin-isolated trophozoites)
T1 sequence (Q8IBZ9 1-424): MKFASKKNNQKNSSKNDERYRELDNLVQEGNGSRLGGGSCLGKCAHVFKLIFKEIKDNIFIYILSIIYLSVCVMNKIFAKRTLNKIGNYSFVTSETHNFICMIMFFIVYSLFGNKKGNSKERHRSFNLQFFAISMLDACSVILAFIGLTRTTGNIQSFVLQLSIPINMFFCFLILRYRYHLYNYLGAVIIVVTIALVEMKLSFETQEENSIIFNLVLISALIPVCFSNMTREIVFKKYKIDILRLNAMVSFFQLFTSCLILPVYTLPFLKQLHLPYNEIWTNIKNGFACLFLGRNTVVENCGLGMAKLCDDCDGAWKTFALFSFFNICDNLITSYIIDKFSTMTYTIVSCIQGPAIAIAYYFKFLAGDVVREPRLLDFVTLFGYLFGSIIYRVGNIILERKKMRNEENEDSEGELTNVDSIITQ

C2^GC03 parasites = assay: P. falciparum proliferation assay; assay type: cell-based; conditions: Plasmodium falciparum
Method: (§1) Parasite proliferation was measured in 96-well plates using a fluorescent DNA-intercalating dye[68],[69]. Synchronous ring-stage parasite cultures (~1% haematocrit and 1% parasitaemia) were incubated with different concentrations of the test compound for 72 h at 37 °C and under reduced O2 conditions. The assay was terminated by freezing and thawing the samples, after which 100 μL of SYBR Safe DNA Gel Stain (Molecular Probes; 0.2 μL/mL) in a lysis buffer (20 mM Tris-HCl, 5 mM EDTA, 0.008% (w/v) saponin and 0.08% (v/v) Triton X-100; pH 7.5) was added to each well. The fluorescence from each well was measured using a Tecan Infinite M1000 PRO microplate reader (excitation wavelength 490 nm; emission wavelength 520 nm). The fluorescence values for the wells containing the highest concentration of the compound were averaged and this value was then subtracted from each of the well values obtained for that 96-well plate. The level of parasite proliferation in the presence of each compound concentration was expressed as a percentage of the proliferation measured in the absence of the compound. The IC50s were determined in SigmaPlot Windows Version 11.0 by a least-squares fit of the equation y = a/[1 + ([compound]/IC50)^c] to the data, where y is the percent parasite proliferation, a is the maximum change in the percent parasite proliferation, and c is a fitted constant. In all cases, five independent experiments were performed (on different days), and within each experiment measurements were averaged from three replicates.

C4^Dd2 parasites = assay: P. falciparum proliferation assay; assay type: cell-based, Plasmodium falciparum
Method: as §1

Dd2 strain = assay: P. falciparum proliferation assay; assay type: cell-based, Plasmodium falciparum
Method: as §1

C6^7G8 parasites = assay: P. falciparum proliferation assay; assay type: cell-based, Plasmodium falciparum
Method: as §1

7G8 strain = assay: P. falciparum proliferation assay; assay type: cell-based, Plasmodium falciparum
Method: as §1

3D7 strain = assay: P. falciparum proliferation assay; assay type: cell-based, Plasmodium falciparum
Method: as §1

PfCRT^Dd2 = assay: cell-based; assay type: cell-based, Plasmodium falciparum; conditions: for PfCRT-mediated [3H]CQ transport, trans-stimulation (% PfCRTDd2 control): PfCRTDd2 oocytes, normalised to oocyte type control; for [3H]CQ transport (% PfCRTDd2 control), trans-stimulation, PfCRTDd2: PfCRT-mediated component (background subtracted), mean ± SEM, SEM
Summary of the method: (§2)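 Oocytes (ten per treatment, ≥4 independent frogs/days) were preloaded by injecting VF-6 in 25 nL ND96 at pH 5.0, 5.5, 6.0 or 7.0, or Na^+-free choline buffer, then uptake run 1.5 h, 27.5 °C, ND96 pH 5.5 by default. Internal concentrations assumed ~400 nL oocyte volume.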

PfCRT^Ecu1110 = assay: cell-based; assay type: cell-based, Plasmodium falciparum; conditions: for PfCRT-mediated [3H]CQ transport, trans-stimulation (% PfCRTEcu1110 control): PfCRTEcu1110 oocytes, normalised to oocyte type control; for [3H]CQ transport (% PfCRTDd2 control), trans-stimulation, PfCRTEcu1110: PfCRT-mediated component (background subtracted), sheet title says normalised to PfCRTDd2 control, mean ± SEM, SEM
Summary of the method: as §2

[2] = Plasmodium falciparum, DD2, 72 h, read-out: IC50 (nM), parasite proliferation, + 1 μM VP, SEM
[3] = Plasmodium falciparum, 72 h, read-out: IC50 (nM), parasite proliferation, + 1 μM VP, SEM
[4] = [test solute]i = 5 mM (intracellular)
[5] = [test solute]i = 45 mM (intracellular; 30 mM for some solutes due to solubility)
[6] = [test solute]i = 5 mM (injected)
[7] = [test solute]i = 45 mM (30 mM for some solutes due to solubility)

Compound: CCN(CC)CCCC(C)Nc1ccnc2cc(Cl)ccc12 (stereo not drawn) [CQ, chloroquine, reference compound]
- Effect on rate of DV alkalinisation / H+ leak (in words) [1]: decrease slightly
- IC50 (C2^GC03 parasites; 72 h, read-out: IC50 (nM), parasite proliferation, + 1 μM VP, SEM): 26 ± 1.3 nM
- IC50 (C2^GC03 parasites; C2GC03, 72 h, 37 °C, SYBR Safe, mean ± SEM, n = 5, read-out: IC50 (nM), parasite proliferation, Control): 27 ± 1.6 nM
- IC50 (C4^Dd2 parasites; [2]): 26 ± 0.1 nM
- IC50 (Dd2 strain; [2]): 25 ± 1 nM
- IC50 (C6^7G8 parasites; [3]): 25 ± 0.2 nM
- IC50 (C6^7G8 parasites; Plasmodium falciparum, C67G8, 72 h, 37 °C, SYBR Safe, mean ± SEM, n = 5, read-out: IC50 (nM), parasite proliferation, Control): 87 ± 2.1 nM
- IC50 (7G8 strain; [3]): 28 ± 1.6 nM
- IC50 (7G8 strain; Plasmodium falciparum, 72 h, read-out: IC50 (nM), parasite proliferation, Control, SEM): 94 ± 4.4 nM
- IC50 (3D7 strain; Plasmodium falciparum, 3D7, 72 h, 37 °C, SYBR Safe, mean ± SEM, n = 5, read-out: IC50 (nM), parasite proliferation, Control): 25 ± 1.1 nM
- IC50 (3D7 strain; Plasmodium falciparum, 3D7, 72 h, read-out: IC50 (nM), parasite proliferation, + 1 μM VP, SEM): 24 ± 0.9 nM

Compound: N[C@@H](Cc1c[nH]cn1)C(=O)O [L-histidine]
- PfCRT-mediated [3H]CQ transport, trans-stimulation (% PfCRTDd2 control) (PfCRT^Dd2; [4]): 99 ± 3.9 % PfCRTDd2 control
- PfCRT-mediated [3H]CQ transport, trans-stimulation (% PfCRTDd2 control) (PfCRT^Dd2; [5]): 95 ± 2.5 % PfCRTDd2 control
- [3H]CQ transport (% PfCRTDd2 control), trans-stimulation, PfCRTDd2 (PfCRT^Dd2; [6]): 99 ± 3.9 % PfCRTDd2 control
- [3H]CQ transport (% PfCRTDd2 control), trans-stimulation, PfCRTDd2 (PfCRT^Dd2; [7]): 95 ± 2.5 % PfCRTDd2 control
- PfCRT-mediated [3H]CQ transport, trans-stimulation (% PfCRTEcu1110 control) (PfCRT^Ecu1110; [4]): 98 ± 2.8 % PfCRTEcu1110 control
- PfCRT-mediated [3H]CQ transport, trans-stimulation (% PfCRTEcu1110 control) (PfCRT^Ecu1110; [5]): 97 ± 4.1 % PfCRTEcu1110 control
- [3H]CQ transport (% PfCRTDd2 control), trans-stimulation, PfCRTEcu1110 (PfCRT^Ecu1110; [6]): 33 ± 2.2 % PfCRTEcu1110 control
- [3H]CQ transport (% PfCRTDd2 control), trans-stimulation, PfCRTEcu1110 (PfCRT^Ecu1110; [7]): 32 ± 1.6 % PfCRTEcu1110 control
- Effect on rate of DV alkalinisation / H+ leak (in words) [1]: without effect

Compound: CSCC[C@H](N)C(=O)O [L-methionine]
- PfCRT-mediated [3H]CQ transport, trans-stimulation (% PfCRTDd2 control) (PfCRT^Dd2; [4]): 98 ± 4.1 % PfCRTDd2 control
- PfCRT-mediated [3H]CQ transport, trans-stimulation (% PfCRTDd2 control) (PfCRT^Dd2; [5]): 97 ± 3.5 % PfCRTDd2 control
- [3H]CQ transport (% PfCRTDd2 control), trans-stimulation, PfCRTDd2 (PfCRT^Dd2; [6]): 98 ± 4.1 % PfCRTDd2 control
- [3H]CQ transport (% PfCRTDd2 control), trans-stimulation, PfCRTDd2 (PfCRT^Dd2; [7]): 97 ± 3.5 % PfCRTDd2 control
- PfCRT-mediated [3H]CQ transport, trans-stimulation (% PfCRTEcu1110 control) (PfCRT^Ecu1110; [4]): 96 ± 1.4 % PfCRTEcu1110 control
- PfCRT-mediated [3H]CQ transport, trans-stimulation (% PfCRTEcu1110 control) (PfCRT^Ecu1110; [5]): 98 ± 4.6 % PfCRTEcu1110 control
- [3H]CQ transport (% PfCRTDd2 control), trans-stimulation, PfCRTEcu1110 (PfCRT^Ecu1110; [6]): 32 ± 1.1 % PfCRTEcu1110 control
- [3H]CQ transport (% PfCRTDd2 control), trans-stimulation, PfCRTEcu1110 (PfCRT^Ecu1110; [7]): 33 ± 1.3 % PfCRTEcu1110 control

Compound: CC(C)(C)NC(=O)[C@@H]1C[C@@H]2CCCC[C@@H]2CN1C[C@@H](O)[C@H](Cc1ccccc1)NC(=O)[C@H](CC(N)=O)NC(=O)c1ccc2ccccc2n1 [Saquinavir, saquinavir, reference compound]
- Maximum rate of peptide mimic-induced DV alkalinization ([1]; mean ± SEM, n = 5, SEM): 0.039 ±0.002 fluorescence ratio/s
- Effect on rate of DV alkalinisation / H+ leak (in words) [1]: increased the rate of DV alkalinisation
- IC50 (C2^GC03 parasites; 72 h, read-out: IC50 (μM), parasite proliferation, + 1 μM VP, SEM): 5100 ± 200 nM
- IC50 (C2^GC03 parasites; C2GC03, 72 h, 37 °C, SYBR Safe, mean ± SEM, n = 5, read-out: IC50 (μM), parasite proliferation, Control): 6800 ± 400 nM
- IC50 (C4^Dd2 parasites; Plasmodium falciparum, DD2, C4Dd2, 72 h, 37 °C, SYBR Safe, mean ± SEM, n = 5, read-out: IC50 (μM), parasite proliferation, Control): 3500 ± 500 nM
- IC50 (C4^Dd2 parasites; read-out: IC50 (μM), parasite proliferation, + 1 μM VP, C4Dd2, + 1 μM verapamil, 72 h, mean ± SEM, n = 5): 1900 ± 100 nM
- IC50 (Dd2 strain; Plasmodium falciparum, DD2, 72 h, read-out: IC50 (μM), parasite proliferation, Control, SEM): 3300 ± 200 nM
- IC50 (Dd2 strain; read-out: IC50 (μM), parasite proliferation, + 1 μM VP, Dd2, + 1 μM verapamil, 72 h, mean ± SEM, n = 5): 2100 ± 300 nM
- IC50 (C6^7G8 parasites; Plasmodium falciparum, C67G8, 72 h, 37 °C, SYBR Safe, mean ± SEM, n = 5, read-out: IC50 (μM), parasite proliferation, Control): 4200 ± 400 nM
- IC50 (C6^7G8 parasites; read-out: IC50 (μM), parasite proliferation, + 1 μM VP, C67G8, + 1 μM verapamil, 72 h, mean ± SEM, n = 5): 2300 ± 300 nM
- IC50 (7G8 strain; Plasmodium falciparum, 72 h, read-out: IC50 (μM), parasite proliferation, Control, SEM): 4700 ± 100 nM
- IC50 (7G8 strain; read-out: IC50 (μM), parasite proliferation, + 1 μM VP, 7G8, + 1 μM verapamil, 72 h, mean ± SEM, n = 5): 2200 ± 100 nM
- IC50 (3D7 strain; Plasmodium falciparum, 3D7, 72 h, 37 °C, SYBR Safe, mean ± SEM, n = 5, read-out: IC50 (μM), parasite proliferation, Control): 7400 ± 300 nM
- IC50 (3D7 strain; read-out: IC50 (μM), parasite proliferation, + 1 μM VP, SEM): 5900 ± 600 nM
